Test results from patent US20110172297A1, “Oxopiperdinyl And Pyranyl Sulfonamides and Pharmaceutical Compositions Thereof” (Pfizer Inc, priority 2008, published 2011).
pEC50: −log10 of the molar value.

The compounds below were run on AMPA receptors (assay: AMPA ES cell FLIPR screen (AMPA Potentiator Assay)). Details: murine ES cell-derived neurons, FLIPR Fluo-4 calcium signal, 32 uM AMPA challenge; values marked * are the geometric mean of 2-9 EC50 determinations.
Assay type: cell-based
Description: The murine ES cell line used was E14-Sx1-16C, which has a targeted mutation in the Sox1 gene, a neuroectodermal marker, that offers G418 resistance when the Sox1 gene is expressed (Stem Cell Sciences). ES cells were maintained undifferentiated as previously described (Roach). […] ES cells were plated on gelatin-coated dishes (BD Biosciences), the media was changed daily and the cells were dissociated with 0.05% Trypsin EDTA (Invitrogen) every other day.
Embryoid Body Formation: Prior to embryoid body (EB) formation the ES cells were weaned from FBS onto Knockout Serum Replacement (KSR) (Invitrogen). To form EBs, ES cells were dissociated into a single cell suspension, then 3×10^6 cells were plated in bacteriology dishes (Nunc 4014) and grown as a suspension culture in NeuroEB-I medium that consisted of Knockout™ D-MEM (Invitrogen), supplemented with 10% KSR (Invitrogen), 0.2 mM L-Glutamine (Invitrogen), 0.1 mM MEM non-essential amino acids (Invitrogen), 30 μg/ml Gentamicin (Invitrogen), 1000 u/ml ESGRO (Chemicon), 0.1 mM 2-Mercaptoethanl (Sigma) and 150 ng/ml Transferrin (Invitrogen). The plates were put on a Stovall Belly Button shaker in an atmospheric oxygen incubator. The media was changed on day 2 of EB formation with NeuroEB-I and on day 4 with NeuroEB-II (NeuroEB-I plus 1 μg/ml mNoggin [R&D Systems]).
Neuronal Precursor Selection and Expansion: On day 5 of EB formation, EBs were dissociated with 0.05% Trypsin EDTA, and 4×10^6cells/100 mm dish were plated on Laminin coated tissue culture dishes in Neuroll-G418 medium that consisted of a base medium of a 1:1 mixture of D-MEM/F12 supplemented with N2 supplements and NeuroBasal Medium supplemented with B27 supplement and 0.1 mM L-Glutamine (all from Invitrogen). The base medium was then supplemented with 10 ng/ml bFGF (Invitrogen), 1 μg/ml mNoggin, 500 ng/ml SHH—N, 100 ng/ml FGF-8b (R&D Systems), 1 μg/ml Laminin and 200 μg/ml G418 (Invitrogen) for selection of neuronal precursors expressing Sox-1. The plates were put in an incubator that contained 2% Oxygen and were maintained in these conditions. During the 6-day selection period, the Neuroll media was changed daily. On day 6, the surviving neuronal precursor foci were dissociated with 0.05% Trypsin EDTA and the cells were plated at a density of 1.5×10^6 cells/100 mm Laminin coated dish in Neuroll-G418 medium. The cells were dissociated every other day for expansion, and prepared for Cryopreservation at passage 3 or 4. The crypreservation medium contained 50% KSR, 10% Dimethyl Sulfoxide (DMSO) (Sigma) and 40% Neurol-G418I medium. Neuronal precursors were crypreserved at a concentration of 4×10^6 cells/ml and 1 ml/cryovial in a controlled rate freezer overnight then transferred to an ultra-low freezer or liquid nitrogen for long-term storage.
Neuronal Differentiation: Cryopreserved ES cell-derived neuronal precursors were thawed by the rapid thaw method in a 37-degree water-bath. The cells were transferred from the cryovial to a 100 mm Laminin coated tissue culture dish that already contained Neuroll-G418 that had been equilibrated in a 2% Oxygen incubator. The media was changed with fresh Neuroll-G418 the next day. The cells were dissociated every other day as described above for expansion to generate enough cells to plate for the screen. For the screen, the cells were plated into 384-well poly-d-lysine coated tissue culture dishes (BD Biosciences) by the automated SelecT at a cell density of 6K cells/well in differentiation medium Neurolll that contained a 4:1 ratio of the NeuroBasalMedium/B27:D-MEM/F12/N2 supplemented with 1 μM cAMP (Sigma), 200 μM Ascorbic Acid (Sigma), 1 μg/ml Laminin (Invitrogen) and 10 ng/ml BDNF (R&D Systems). The plates were put in an incubator with 2% Oxygen and allowed to complete the differentiation process for 7 days. The cells could then be used over a 5-day period for the high throughput screen.
On the day of the assay, the FLIPR assay may be performed using the following methods: […]

SMILES | pEC50
CC(C)S(=O)(=O)N[C@@H]1CCOC[C@H]1c1ccc(-c2ccccc2)cc1 [Example 33, N-[(3S,4R)-3-biphenyl-4-yltetrahydro-2H-pyran-4-yl]propane-2-sulfonamide] | < 4.50
CC(C)S(=O)(=O)N[C@@H]1CCC(=O)N[C@H]1c1ccc(-c2ccccc2)cc1 [Example 12, N-[(2S,3R)-2-biphenyl-4-yl-6-oxopiperidin-3-yl]propane-2-sulfonamide] | 4.91
CC(C)S(=O)(=O)N[C@H]1CCCO[C@@H]1c1ccc(-c2ccccc2)cc1 [Example 9, N-[(2R,3S)-2-biphenyl-4-yltetrahydro-2H-pyran-3-yl]propane-2-sulfonamide] | 5.35
CCOc1ccccc1-c1ccc([C@H]2COCC[C@H]2NS(=O)(=O)C(C)C)cc1 [Example 28, N-[(3R,4R)-3-(2′-ethoxybiphenyl-4-yl)tetrahydro-2H-pyran-4-yl]propane-2-sulfonamide] | < 4.50
CC(C)S(=O)(=O)N[C@@H]1CCC(=O)N[C@H]1c1ccc(-c2ccccc2C#N)cc1 [Example 52, N-[(2S,3R)-2-(2′-cyanobiphenyl-4-yl)-6-oxopiperidin-3-yl]propane-2-sulfonamide] | < 4.50
CC(C)S(=O)(=O)N[C@@H]1CCCO[C@H]1c1ccc(-c2ccc(C#N)s2)cc1 [Example 49, N-{(2S,3R)-2-[4-(5-cyano-2-thienyl)phenyl]tetrahydro-2H-pyran-3-yl}propane-2-sulfonamide] | < 4.50
CCOc1ccccc1-c1ccc([C@@H]2CCOC[C@H]2NS(=O)(=O)C(C)C)cc1 [Example 7, N-[(3S,4S)-4-(2′-ethoxybiphenyl-4-yl)tetrahydro-2H-pyran-3-yl]propane-2-sulfonamide] | < 4.50
CC(C)S(=O)(=O)N[C@H]1COCC[C@]1(O)c1ccc(-c2ccccc2)cc1 [Example 5, N-[(3S,4S)-4-biphenyl-4-yl-4-hydroxytetrahydro-2H-pyran-3-yl]propane-2-sulfonamide] | 5.12
CC(C)S(=O)(=O)N[C@@H]1COCC[C@@H]1c1ccc(-c2ccccc2)cc1 [Example 13, N-[(3S,4R)-4-biphenyl-4-yltetrahydro-2H-pyran-3-yl]propane-2-sulfonamide] | < 4.50
CC(C)S(=O)(=O)N[C@@H]1COCC[C@H]1c1ccc(-c2ccccc2C#N)cc1 [Example 17, N-[(3S,4S)-4-(2′-cyanobiphenyl-4-yl)tetrahydro-2H-pyran-3-yl]propane-2-sulfonamide] | < 4.50
CCOc1ccccc1-c1ccc([C@@H]2NC(=O)CC[C@H]2NS(=O)(=O)C(C)C)cc1 [Example 10, N-[(2S,3R)-2-(2′-ethoxybiphenyl-4-yl)-6-oxopiperidin-3-yl]propane-2-sulfonamide] | < 5.12
CC(C)S(=O)(=O)N[C@@H]1CCOC[C@H]1c1ccc(-c2cccnc2)cc1 [Example 37, N-[(3S,4R)-3-(4-pyridin-3-ylphenyl)tetrahydro-2H-pyran-4-yl]propane-2-sulfonamide] | < 5.33
CC(C)S(=O)(=O)N[C@@H]1COCC[C@]1(O)c1ccc(-c2ccccc2)cc1 [Example 4, N-[(3R,4S)-4-biphenyl-4-yl-4-hydroxytetrahydro-2H-pyran-3-yl]propane-2-sulfonamide] | < 4.50
CC(C)S(=O)(=O)N[C@@H]1COCC[C@@H]1c1ccc(-c2ccc(C#N)s2)cc1 [Example 58, N-{(3S,4R)-4-[4-(5-cyano-2-thienyl)phenyl]tetrahydro-2H-pyran-3-yl}propane-2-sulfonamide] | < 4.50
CC(C)S(=O)(=O)N[C@@H]1COCC[C@H]1c1ccc(-c2ccc(C#N)s2)cc1 [Example 19, N-{(3S,4S)-4-[4-(5-cyano-2-thienyl)phenyl]tetrahydro-2H-pyran-3-yl}propane-2-sulfonamide] | < 4.50
CCOc1ccccc1-c1ccc([C@@H]2OCCC[C@H]2NS(=O)(=O)C(C)C)cc1 [Example 45, N-[(2S,3R)-2-(2′-ethoxybiphenyl-4-yl)tetrahydro-2H-pyran-3-yl]propane-2-sulfonamide] | < 5.02
CC(C)S(=O)(=O)N[C@H]1COCC[C@H]1c1ccc(-c2ccc(C#N)cc2)cc1 [Example 61, N-[(3R,4S)-4-(4′-cyanobiphenyl-4-yl)tetrahydro-2H-pyran-3-yl]propane-2-sulfonamide] | < 4.50

These reach a higher pEC50. Values come first.

pEC50 | SMILES
5.39 | CC(C)S(=O)(=O)N[C@H]1CCOC[C@H]1c1ccc(-c2ccc(C#N)cc2)cc1 [Example 29, N-[(3S,4S)-3-(4′-cyanobiphenyl-4-yl)tetrahydro-2H-pyran-4-yl]propane-2-sulfonamide]
5.64 | CC(C)S(=O)(=O)N[C@H]1CCC(=O)N[C@@H]1c1ccc(-c2ccccc2C#N)cc1 [Example 54, N-[(2R,3S)-2-(2′-cyanobiphenyl-4-yl)-6-oxopiperidin-3-yl]propane-2-sulfonamide]
5.77 | CCOc1ccccc1-c1ccc([C@H]2NC(=O)CC[C@@H]2NS(=O)(=O)C(C)C)cc1 [Example 50, N-[(2R,3S)-2-(2′-ethoxybiphenyl-4-yl)-6-oxopiperidin-3-yl]propane-2-sulfonamide]
6.08 | CC(C)S(=O)(=O)N[C@H]1CCOC[C@@H]1c1ccc(-c2ccc(C#N)s2)cc1 [Example 41, N-{(3R,4S)-3-[4-(5-cyano-2-thienyl)phenyl]tetrahydro-2H-pyran-4-yl}propane-2-sulfonamide]
6.13 | CC(C)S(=O)(=O)N[C@H]1COCC[C@H]1c1ccc(-c2ccccc2C#N)cc1 [Example 57, N-[(3R,4S)-4-(2′-cyanobiphenyl-4-yl)tetrahydro-2H-pyran-3-yl]propane-2-sulfonamide]
6.31 | CCOc1ccccc1-c1ccc([C@H]2OCCC[C@@H]2NS(=O)(=O)C(C)C)cc1 [Example 44, N-[(2R,3S)-2-(2′-ethoxybiphenyl-4-yl)tetrahydro-2H-pyran-3-yl]propane-2-sulfonamide]
6.37 | CC(C)S(=O)(=O)N[C@H]1CCOC[C@H]1c1ccc(-c2ccccc2C#N)cc1 [Example 22, N-[(3S,4S)-3-(2′-cyanobiphenyl-4-yl)tetrahydro-2H-pyran-4-yl]propane-2-sulfonamide]
6.38 | CC(C)S(=O)(=O)N[C@H]1COCC[C@@H]1c1ccc(-c2ccccc2C#N)cc1 [Example 18, N-[(3R,4R)-4-(2′-cyanobiphenyl-4-yl)tetrahydro-2H-pyran-3-yl]propane-2-sulfonamide]
6.39 | CCOc1ccccc1-c1ccc([C@H]2CCOC[C@@H]2NS(=O)(=O)C(C)C)cc1 [Example 8, N-[(3R,4R)-4-(2′-ethoxybiphenyl-4-yl)tetrahydro-2H-pyran-3-yl]propane-2-sulfonamide]
6.42 | CC(C)S(=O)(=O)N[C@H]1CCOC[C@H]1c1ccc(-c2ccc(F)cc2C#N)cc1 [Example 24, N-[(3S,4S)-3-(2′-cyano-4′-fluorobiphenyl-4-yl)tetrahydro-2H-pyran-4-yl]propane-2-sulfonamide]
6.50 | CC(C)S(=O)(=O)N[C@H]1CCOC[C@@H]1c1ccc(-c2ccccc2C#N)cc1 [Example 31, N-[(3R,4S)-3-(2′-cyanobiphenyl-4-yl)tetrahydro-2H-pyran-4-yl]propane-2-sulfonamide]
6.59 | CC(C)S(=O)(=O)N[C@H]1CCOC[C@@H]1c1ccc(-c2ccc(F)cc2C#N)cc1 [Example 40, N-[(3R,4S)-3-(2′-cyano-4′-fluorobiphenyl-4-yl)tetrahydro-2H-pyran-4-yl]propane-2-sulfonamide]
6.66 | CCOc1ccccc1-c1ccc([C@H]2COCC[C@@H]2NS(=O)(=O)C(C)C)cc1 [Example 34, N-[(3R,4S)-3-(2′-ethoxybiphenyl-4-yl)tetrahydro-2H-pyran-4-yl]propane-2-sulfonamide]
